# According to patent US4229204A, “Trifluoromethylphenyl isoxazolyl benzoates” (Monsanto Company, priority 1978, dated 1980):
# Columns and labels:
# Type in all cases: in vivo
# Crabgrass = assay: Pre-emergent herbicidal test; details: 2 WAT
# Method: (§1) The pre-emergent test was conducted as follows:
# (§2) A good grade of top soil was placed in aluminum pans and compacted to a depth of three-eighths to one-half inch from the top of the pan. On the top of the soil was placed a predetermined number of seeds or vegetative propagules of various plant species which were pressed into the soil surface. The soil required to level fill the pans after seeding or adding vegetative propagules was weighed into a pan. A known amount of the active ingredient applied in a solvent or as a wettable powder and the soil were thoroughly mixed, and used as a cover layer for prepared pans.
# (§3) The herbicidal rating was obtained by means of a fixed scale based on the percent injury of each plant species. The ratings are defined as follows: […]
# Hemp Sesbania = assay: Pre-emergent herbicidal test; details: 2 WAT
# Method: as §1, §2, §3
# Panicum Spp. = assay: Pre-emergent herbicidal test; details: 2 WAT
# Method: as §1, §2, §3
# Rice = assay: Pre-emergent herbicidal test; details: 2 WAT
# Method: as §1, §2, §3
# Sorghum = assay: Pre-emergent herbicidal test; details: 2 WAT
# Method: as §1, §2, §3
# Soybean = assay: Pre-emergent herbicidal test; details: 2 WAT
# Method: as §1, §2, §3
# Sugarbeet = assay: Pre-emergent herbicidal test; details: 2 WAT
# Method: as §1, §2, §3
# Wheat = assay: Pre-emergent herbicidal test; details: 2 WAT
# Method: as §1, §2, §3
# Wild Buckwheat = assay: Pre-emergent herbicidal test; details: 2 WAT
# Method: as §1, §2, §3
# Barnyardgrass [1] = assay: Pre-emergent herbicidal test
# Method: as §1, §2, §3
# (§4) The compounds were also tested by utilizing the above procedure on the following plant species: […]
# Canada Thistle [2] = assay: Pre-emergent herbicidal test; details: 11.2 kg/h
# Method: as §1, §2, §3, §4
# Cocklebur [3] = assay: Pre-emergent herbicidal test
# Method: as §1, §2, §3, §4
# Downy Brome [4] = assay: Pre-emergent herbicidal test
# Method: as §1, §2, §3, §4
# Johnsongrass [5] = assay: Pre-emergent herbicidal test; details: 11.2 kg/h
# Method: as §1, §2, §3, §4
# Lambsquarters [6] = assay: Pre-emergent herbicidal test
# Method: as §1, §2, §3, §4
# Morningglory [7] = assay: Pre-emergent herbicidal test
# Method: as §1, §2, §3, §4
# Quackgrass [8] = assay: Pre-emergent herbicidal test; details: 11.2 kg/h
# Method: as §1, §2, §3, §4
# Smartweed [9] = assay: Pre-emergent herbicidal test
# Method: as §1, §2, §3, §4
# Velvetleaf [10] = assay: Pre-emergent herbicidal test
# Method: as §1, §2, §3, §4
# Yellow Nutsedge [11] = assay: Pre-emergent herbicidal test; details: 11.2 kg/h
# Method: as §1, §2, §3, §4
# Barnyardgrass [12] = assay: Post-emergent herbicidal test; details: 4 WAT, 11.2 kg/h
# Method: (§5) The post-emergent tests were conducted as follows:
# (§6) The active ingredients are applied in spray form to two or three week old specimens of various plant species. The spray, a solution or wettable powder suspension containing the appropriate rate of active ingredient to give the desired test rate and a surfactant, is applied to the plants.
# as §4
# Canada Thistle [13] = assay: Post-emergent herbicidal test; details: 4 WAT, 11.2 kg/h
# Method: as §5, §6, §4
# Cocklebur [14] = assay: Post-emergent herbicidal test; details: 4 WAT, 11.2 kg/h
# Method: as §5, §6, §4
# Downy Brome [15] = assay: Post-emergent herbicidal test; details: 4 WAT, 11.2 kg/h
# Method: as §5, §6, §4
# Johnsongrass [16] = assay: Post-emergent herbicidal test; details: 4 WAT, 11.2 kg/h
# Method: as §5, §6, §4
# Lambsquarters [17] = assay: Post-emergent herbicidal test; details: 4 WAT, 11.2 kg/h
# Method: as §5, §6, §4
# Morningglory [18] = assay: Post-emergent herbicidal test; details: 4 WAT, 11.2 kg/h
# Method: as §5, §6, §4
# Quackgrass [19] = assay: Post-emergent herbicidal test; details: 4 WAT, 11.2 kg/h
# Method: as §5, §6, §4
# Smartweed [20] = assay: Post-emergent herbicidal test; details: 4 WAT, 11.2 kg/h
# Method: as §5, §6, §4
# Velvetleaf [21] = assay: Post-emergent herbicidal test; details: 4 WAT, 11.2 kg/h
# Method: as §5, §6, §4
# Yellow Nutsedge [22] = assay: Post-emergent herbicidal test; details: 4 WAT, 11.2 kg/h
# Method: as §5, §6, §4
# Further: ranges in brackets are in %.
compound,measurement,setting,value
"CCCCOC(=O)c1ccccc1-c1cc(-c2cccc(C(F)(F)F)c2)no1 [Example 6, n-Butyl 2-[3-[3-(Trifluoromethyl)Phenyl]-5-Isoxazolyl]Benzoate]",herbicidal rating,Crabgrass; 0.28 kg/h,3 (75-100)
same,herbicidal rating,Crabgrass; 1.12 kg/h,2 (50-74)
same,herbicidal rating,Crabgrass; 5.60 kg/h,3 (75-100)
same,herbicidal rating,Hemp Sesbania; 0.28 kg/h,1 (25-49)
same,herbicidal rating,Hemp Sesbania; 1.12 kg/h,3 (75-100)
same,herbicidal rating,Hemp Sesbania; 5.60 kg/h,2 (50-74)
same,herbicidal rating,Panicum Spp.; 0.28 kg/h,3 (75-100)
same,herbicidal rating,Panicum Spp.; 1.12 kg/h,1 (25-49)
same,herbicidal rating,Panicum Spp.; 5.60 kg/h,2 (50-74)
same,herbicidal rating,Rice; 0.28 kg/h,2 (50-74)
same,herbicidal rating,Rice; 1.12 kg/h,3 (75-100)
same,herbicidal rating,Rice; 5.60 kg/h,3 (75-100)
same,herbicidal rating,Sorghum; 0.28 kg/h,0 (0-24)
same,herbicidal rating,Sorghum; 1.12 kg/h,1 (25-49)
same,herbicidal rating,Sorghum; 5.60 kg/h,3 (75-100)
same,herbicidal rating,Soybean; 0.28 kg/h,0 (0-24)
same,herbicidal rating,Soybean; 1.12 kg/h,1 (25-49)
same,herbicidal rating,Soybean; 5.60 kg/h,3 (75-100)
same,herbicidal rating,Sugarbeet; 0.28 kg/h,1 (25-49)
same,herbicidal rating,Sugarbeet; 1.12 kg/h,2 (50-74)
same,herbicidal rating,Sugarbeet; 5.60 kg/h,2 (50-74)
same,herbicidal rating,Wheat; 0.28 kg/h,0 (0-24)
same,herbicidal rating,Wheat; 1.12 kg/h,1 (25-49)
same,herbicidal rating,Wheat; 5.60 kg/h,1 (25-49)
same,herbicidal rating,Wild Buckwheat; 0.28 kg/h,3 (75-100)
same,herbicidal rating,Wild Buckwheat; 1.12 kg/h,2 (50-74)
same,herbicidal rating,Wild Buckwheat; 5.60 kg/h,3 (75-100)
same,herbicidal rating,"Barnyardgrass [1]; 2 WAT, 0.28 kg/h",3 (75-100)
same,herbicidal rating,"Barnyardgrass [1]; 2 WAT, 1.12 kg/h",3 (75-100)
same,herbicidal rating,"Barnyardgrass [1]; 2 WAT, 5.60 kg/h",3 (75-100)
same,herbicidal rating,"Barnyardgrass [1]; 4 WAT, 11.2 kg/h",3 (75-100)
same,herbicidal rating,Canada Thistle [2]; 4 WAT,3 (75-100)
same,herbicidal rating,"Cocklebur [3]; 2 WAT, 0.28 kg/h",0 (0-24)
same,herbicidal rating,"Cocklebur [3]; 2 WAT, 1.12 kg/h",0 (0-24)
same,herbicidal rating,"Cocklebur [3]; 2 WAT, 5.60 kg/h",1 (25-49)
same,herbicidal rating,"Cocklebur [3]; 4 WAT, 11.2 kg/h",1 (25-49)
same,herbicidal rating,"Downy Brome [4]; 2 WAT, 0.28 kg/h",2 (50-74)
same,herbicidal rating,"Downy Brome [4]; 2 WAT, 1.12 kg/h",1 (25-49)
same,herbicidal rating,"Downy Brome [4]; 2 WAT, 5.60 kg/h",3 (75-100)
same,herbicidal rating,"Downy Brome [4]; 4 WAT, 11.2 kg/h",3 (75-100)
same,herbicidal rating,Johnsongrass [5]; 4 WAT,0 (0-24)
same,herbicidal rating,"Lambsquarters [6]; 2 WAT, 0.28 kg/h",3 (75-100)
same,herbicidal rating,"Lambsquarters [6]; 2 WAT, 1.12 kg/h",3 (75-100)
same,herbicidal rating,"Lambsquarters [6]; 2 WAT, 5.60 kg/h",3 (75-100)
same,herbicidal rating,"Lambsquarters [6]; 4 WAT, 11.2 kg/h",2 (50-74)
same,herbicidal rating,"Morningglory [7]; 2 WAT, 0.28 kg/h",1 (25-49)
same,herbicidal rating,"Morningglory [7]; 2 WAT, 1.12 kg/h",1 (25-49)
same,herbicidal rating,"Morningglory [7]; 2 WAT, 5.60 kg/h",3 (75-100)
same,herbicidal rating,"Morningglory [7]; 4 WAT, 11.2 kg/h",3 (75-100)
same,herbicidal rating,Quackgrass [8]; 4 WAT,2 (50-74)
same,herbicidal rating,"Smartweed [9]; 2 WAT, 0.28 kg/h",3 (75-100)
same,herbicidal rating,"Smartweed [9]; 2 WAT, 1.12 kg/h",3 (75-100)
same,herbicidal rating,"Smartweed [9]; 2 WAT, 5.60 kg/h",3 (75-100)
same,herbicidal rating,"Smartweed [9]; 4 WAT, 11.2 kg/h",3 (75-100)
same,herbicidal rating,"Velvetleaf [10]; 2 WAT, 0.28 kg/h",0 (0-24)
same,herbicidal rating,"Velvetleaf [10]; 2 WAT, 1.12 kg/h",0 (0-24)
same,herbicidal rating,"Velvetleaf [10]; 2 WAT, 5.60 kg/h",2 (50-74)
same,herbicidal rating,"Velvetleaf [10]; 4 WAT, 11.2 kg/h",1 (25-49)
same,herbicidal rating,Yellow Nutsedge [11]; 4 WAT,1 (25-49)
same,herbicidal rating,Barnyardgrass [12],2 (50-74)
same,herbicidal rating,Canada Thistle [13],2 (50-74)
same,herbicidal rating,Cocklebur [14],1 (25-49)
same,herbicidal rating,Downy Brome [15],0 (0-24)
same,herbicidal rating,Johnsongrass [16],1 (25-49)
same,herbicidal rating,Lambsquarters [17],1 (25-49)
same,herbicidal rating,Morningglory [18],2 (50-74)
same,herbicidal rating,Quackgrass [19],1 (25-49)
same,herbicidal rating,Smartweed [20],2 (50-74)
same,herbicidal rating,Velvetleaf [21],1 (25-49)
same,herbicidal rating,Yellow Nutsedge [22],0 (0-24)
"CC(C)OC(=O)c1ccccc1-c1cc(-c2cccc(C(F)(F)F)c2)no1 [Example 8, Isopropyl 2-[3-[3-(Trifluoromethyl)Phenyl]-5-Isoxazolyl]Benzoate]",herbicidal rating,"Barnyardgrass [1]; 2 WAT, 11.2 kg/h",0 (0-24)
same,herbicidal rating,Canada Thistle [2]; 2 WAT,0 (0-24)
same,herbicidal rating,"Cocklebur [3]; 2 WAT, 11.2 kg/h",0 (0-24)
same,herbicidal rating,"Downy Brome [4]; 2 WAT, 11.2 kg/h",0 (0-24)
same,herbicidal rating,Johnsongrass [5]; 2 WAT,0 (0-24)
same,herbicidal rating,"Lambsquarters [6]; 2 WAT, 11.2 kg/h",3 (75-100)
same,herbicidal rating,"Morningglory [7]; 2 WAT, 11.2 kg/h",0 (0-24)
same,herbicidal rating,Quackgrass [8]; 2 WAT,1 (25-49)
same,herbicidal rating,"Smartweed [9]; 2 WAT, 11.2 kg/h",0 (0-24)
same,herbicidal rating,"Velvetleaf [10]; 2 WAT, 11.2 kg/h",0 (0-24)
same,herbicidal rating,Yellow Nutsedge [11]; 2 WAT,0 (0-24)
same,herbicidal rating,Barnyardgrass [12],1 (25-49)
same,herbicidal rating,Canada Thistle [13],0 (0-24)
same,herbicidal rating,Cocklebur [14],1 (25-49)
same,herbicidal rating,Downy Brome [15],0 (0-24)
same,herbicidal rating,Johnsongrass [16],0 (0-24)
same,herbicidal rating,Lambsquarters [17],2 (50-74)
same,herbicidal rating,Morningglory [18],2 (50-74)
same,herbicidal rating,Quackgrass [19],0 (0-24)
same,herbicidal rating,Smartweed [20],1 (25-49)
same,herbicidal rating,Velvetleaf [21],0 (0-24)
same,herbicidal rating,Yellow Nutsedge [22],0 (0-24)
